Data as given in patent US20060058243A1, “Methods and compositions for treating diabetes mellitis” (priority 2002, published 2006).
Entries after “also recorded” stand apart in the source; their conditions may differ.

Tests used:
3T3-L1 adipocytes [1] = assay: Glucose transport stimulatory (GTS) activity, 2-deoxy-D-[3H]glucose uptake; assay type: cell-based; conditions: for GTS activity (in words): 3T3-L1 cell system; for glucose uptake by the cells: 20-40 μM
Experimental: (§1) PGG, either as a mixture or as single isomer (α or β), is added to either adipocytes (A) or preadipocytes (B). GTS activity (A) and AD activity (B) of PGG are measured by ^3H-glucose uptake. GLUT4 is not expressed in preadipocytes, so glucose uptake can be used as an indirect measurement of adipocyte differentiation.
Glucose uptake activity in cells may be analyzed by measuring the uptake of 2-deoxy-D-[^3H] glucose using a standard assay. Confluent 3T3-L1 adipocytes grown in 12-well plates are washed twice with serum-free DMEM and incubated with 1 mL of the same medium at 37° C. for 2 h. The cells are washed 3 times with Krebs-Ringer-Hepes (KRP) buffer and incubated with 0.9 mL KRP buffer at 37° C. for 30 min. […] Glucose uptake is initiated by addition of 0.1 mL KRP buffer and 37 MBq/L 2-deoxy-D-[^3H] glucose and 1 mmol/L glucose as final concentrations. After 10 min, glucose uptake is terminated by washing the cells 3 times with cold PBS. The cells are lysed with 0.7 mL of 1% Triton X-100 at 37° C. for 20 min. The radioactivity retained by the cell lysates is determined by a scintillation counter. The dosage that induces the maximal glucose uptake can be selected among the experimental samples.
3T3-L1 adipocytes were purchased from ATCC, and maintained and passed as preadipocytes in DMEM supplemented with 10% calf serum in a 37° C. incubator with 10% CO2 as required by the cells. The cells were induced to differentiate into adipocytes by addition of MDI induction cocktail as described in Liu, F., Kim, J., Li, Y., Liu, X., Li, J. & Chen, X. (2001) An extract of Lagerstroemia speciosa L. has insulin-like glucose uptake-stimulatory and adipocyte differentiation-inhibitory activities in 3T3-L1 cells. J. Nutrition 131:2242-224, which is specifically incorporated herein by reference. Varying amounts of α-PGG and β-PGG were then added to the medium and the amount of glucose taken up by control and treated cells determined using a standard glucose uptake assay, as described in Liu et al. As shown in FIG. 2A chemically synthesized and plant derived β-PGG have similar glucose transport stimulatory (GTS). The GTS activity of α-PGG is consistently 10-20% higher than that of β-PGG (FIG. 2).
Confluent 3T3-L1 adipocytes grown in 12-well plates were washed twice with serum-free DMEM and incubated with 1 mL of the same medium at 37° C. for 2 h. The cells were washed 3 times with Krebs-Ringer-Hepes (KRP) buffer and incubated with 0.9 mL KRP buffer at 37° C. for 30 min. Compounds listed in the table below were then added at 20-40 μM (final concentration?) and adipocytes were incubated at 37° C. for 15 min. Glucose uptake was initiated by addition of 0.1 mL KRP buffer and 37 MBq/L 2-deoxy-D-[3H] glucose and 1 mmol/L glucose as final concentrations. After 10 min, glucose uptake was terminated by washing the cells 3 times with cold PBS. The cells were lysed with 0.7 mL of 1% Triton X-100 at 37° C. for 20 min. The radioactivity retained by the cell lysates is determined by a scintillation counter.

3T3-L1 preadipocytes [2] = assay: Adipocyte differentiation (AD) of preadipocytes, MDI induction, Oil Red O staining and glucose uptake; assay type: cell-based
Experimental: as §1
Ten days after induction, the cells were stained with Oil Red 0 and photographed at magnification X200. Only those cells that contain fat vesicles (triglyceride) can be stained.
After about 10 days MDI induces differentiation, which is clearly visible as the change from fibroblast-like preadipcytes to round-shaped, fat vesicle-containing adipocytes.
3T3-L1 adipocytes were purchased from ATCC, and maintained and passed as preadipocytes in DMEM supplemented with 10% calf serum in a 37° C. incubator with 10% CO2 as required by the cells. To test the effect of PGG on adipogenesis, the preadipocytes were incubated either with a differentiation-induction cocktail comprised of 3-isobutyl-1-methylxanthine, […], a cocktail comprised of 3-isobutyl-1-methylxanthine, dexamethasone (MD) and PGG; or with MDI plus PGG.
In order to study the mechanism by which PGG inhibits 3T3-L1 preadipocyte differentiation, we used gene expression studies. This strategy allows us to determine whether PGG specifically acts on genes that participate in the differentiation process. […] After about 10 days MDI induces differentiation, which is clearly visible as the change from fibroblast-like preadipcytes to round-shaped, fat vesicle-containing adipocytes (FIG. 8 middle).

ob/ob mice = assay: Glucose tolerance test in ob/ob mice; assay type: in vivo; conditions: ob/ob mice
Experimental: FIG. 11. Effect of PGG on blood glucose levels in db/db and ob/ob mice. Various doses of α-PGG were orally delivered without glucose to db/db mice(A) or with glucose to ob/ob mice (B) mice. At different times post the delivery, glucose was determined in samples from tail blood.
FIG. 12. PGG protects ob/ob mice from hyperglycemia immediately after glucose challenge and hypoglycemia several days after the challenge. At various time points after the glucose challenge, blood glucose levels were measured in tail blood.
To determine if α-PGG is also effective in improving glucose tolerance in diabetic and obese mice, a glucose tolerance test was performed using ob/ob mice. Glucose or glucose plus α-PGG were orally delivered into male ob/ob mice, and blood glucose levels were measured at various times post glucose/PGG administration.
A single high does of glucose in ob/ob mice can be fatal, either because of the very high levels of blood glucose levels […] after the glucose challenge or because of the abnormally low glucose levels 2-3 days after the glucose challenge. […] Although the protection mechanisms are unknown at this time, it is very likely that α-PGG protected the ob/ob mice not only by its GTS activity, but also some other activity such as AD-related activity.

gelatin, BSA, ovalbumin = assay: Competitive protein binding assay with 125I BSA tracer; conditions: FIG. 5
Experimental: A fixed quantity of ^125I BSA was incubated with PGG in the presence of variable amount of either cold gelatin, or BSA, or ovalbumin. Bound was separated from free by precipitation and was expressed as the % bound in the absence of competitor.
A competitive binding assay using radiolabeled bovine serum albumin (BSA) as the tracer was used to determine whether PGG can bind proteins selectively. The relative affinities of three standard proteins for PGG differ from one another by at least 10-fold (FIG. 5), and the difference of the binding affinities of PGG to gelatin and ovalbumin is more than 100-fold.

Normal (healthy) mice = assay: Blood glucose in normal mice at basal glucose level (hypoglycemia test); conditions: given 120 min after 40 mg oral glucose; PGG oral, insulin intraperitoneal
Experimental: Normal (healthy) mice were orally fed with 40 mg of glucose at time zero. […] Thus, PGG reduces blood glucose level when it is higher than normal.

[3] = molecular target: T1, insulin receptor IR in 3T3-L1 adipocytes (Mus musculus, UniProt P15208); assay: 125I-insulin binding in the presence of PGG; conditions: FIG. 4
T1 construct: host or cells: 3T3-L1 adipocytes

Akt in 3T3-L1 adipocytes = assay: Western blot of Akt phosphorylation; assay type: cell-based; conditions: PGG 15 μM and 30 μM, FIG. 7
Description: Differentially treated adipocytes were lysed, the cell proteins analyzed by SDS-PAGE.

[4] = test system: PPARγ and C/EBPα gene expression in 3T3-L1 preadipocytes; assay: Northern blot analysis of differentiation gene expression; assay type: cell-based; conditions: FIG. 9
Experimental: FIG. 9. Northern blot analysis of PPARγ and C/EBPα gene expression in 3T3-L1 preadipocytes. Differentially treated preadipocytes were analyzed for their mRNA expression at various times post treatment. Lane 1: No treatment; Lane 2=MDI; Lane 3=30 μM PGG+MDI; Lane 4=30 μM of PGG alone. Times=times post treatment when mRNA was isolated.
At various times the treated cells were harvested, the total RNA was isolated, and expression was analyzed by Northern blots using probes complementary to various genes that are involved in the differentiation process.

3T3-L1 adipocytes [5] = assay: Glucose transport induced by insulin or PGG in the presence of insulin-signaling pathway inhibitors; assay type: cell-based; conditions: FIG. 6
Experimental: The glucose transport activity of the treated cells was measured by ^3H glucose taken up by the cells. HNMPA-(AM)3 inhibits IR Tyr kinase activity, Cytochalasin B inhibits GLUT4, Wortmannin inhibits PI-3K, respectively.

3T3-L1 preadipocytes [6] = assay: Clonal expansion / cell proliferation assay by LDH activity; assay type: cell-based; conditions: in the presence of MDI, FIG. 10
Experimental: Preadipocytes were induced to undergo clonal expansion by MDI, or α-PGG, or β-PGG in the presence of MDI. 24 or 48 hrs after induction, the media was removed and the cells were lysed. The […] (LDH) activity of the cell lysates was measured by LDH kit. Cell growth media were also collected and their LDH activity from dead cells was also measured (not shown on this graph). LDH activity is a constant per cell in a given cell type, the LDH activity measured is proportional to the number of cells in the samples.
A cell proliferation assay was used to determine if PGG inhibits adipocyte differentiation by blocking clonal expansion. […] The basis for the difference between the anomers in clonal expansion and differentiation is not known.

T1 sequence (P15208 28-748 limits assumed): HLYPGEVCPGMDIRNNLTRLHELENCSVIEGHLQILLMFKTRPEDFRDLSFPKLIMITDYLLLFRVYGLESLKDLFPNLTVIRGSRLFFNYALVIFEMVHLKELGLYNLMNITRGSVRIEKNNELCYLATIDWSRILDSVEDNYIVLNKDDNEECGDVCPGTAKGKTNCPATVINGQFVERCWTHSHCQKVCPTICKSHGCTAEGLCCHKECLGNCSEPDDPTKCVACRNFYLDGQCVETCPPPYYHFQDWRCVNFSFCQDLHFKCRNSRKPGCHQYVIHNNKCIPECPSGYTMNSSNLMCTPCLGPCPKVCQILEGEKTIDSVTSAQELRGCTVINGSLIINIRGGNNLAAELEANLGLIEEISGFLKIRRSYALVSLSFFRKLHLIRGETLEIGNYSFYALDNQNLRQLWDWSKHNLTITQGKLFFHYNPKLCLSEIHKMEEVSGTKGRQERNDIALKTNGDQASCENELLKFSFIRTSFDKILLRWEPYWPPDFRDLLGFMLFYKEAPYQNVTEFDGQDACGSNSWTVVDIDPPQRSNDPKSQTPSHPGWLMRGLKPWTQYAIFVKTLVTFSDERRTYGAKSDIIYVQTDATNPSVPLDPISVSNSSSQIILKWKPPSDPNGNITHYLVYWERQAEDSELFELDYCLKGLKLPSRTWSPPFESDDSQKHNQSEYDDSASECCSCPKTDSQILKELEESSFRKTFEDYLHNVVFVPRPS
T1 sequence (P15208 753-1372 limits assumed): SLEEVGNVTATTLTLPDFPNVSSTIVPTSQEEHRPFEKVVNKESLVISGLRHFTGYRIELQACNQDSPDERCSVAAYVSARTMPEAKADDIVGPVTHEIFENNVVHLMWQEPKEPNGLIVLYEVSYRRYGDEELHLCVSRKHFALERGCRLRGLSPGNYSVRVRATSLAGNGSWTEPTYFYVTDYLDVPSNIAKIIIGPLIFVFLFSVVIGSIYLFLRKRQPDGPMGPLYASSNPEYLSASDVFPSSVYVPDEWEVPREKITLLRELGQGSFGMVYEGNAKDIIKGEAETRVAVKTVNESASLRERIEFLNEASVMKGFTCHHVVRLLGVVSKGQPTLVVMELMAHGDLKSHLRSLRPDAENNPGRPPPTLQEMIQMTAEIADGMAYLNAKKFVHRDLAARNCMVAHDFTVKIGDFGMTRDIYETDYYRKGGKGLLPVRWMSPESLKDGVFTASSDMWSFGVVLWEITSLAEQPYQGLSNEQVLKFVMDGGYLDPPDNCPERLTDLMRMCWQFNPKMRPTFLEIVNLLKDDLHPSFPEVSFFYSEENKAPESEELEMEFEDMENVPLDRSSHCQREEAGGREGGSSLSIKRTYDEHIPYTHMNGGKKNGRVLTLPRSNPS

Molecule: O=C(O[C@@H]1Cc2c(O)cc(O)cc2O[C@@H]1c1cc(O)c(O)c(O)c1)c1cc(O)c(O)c(O)c1 [EGCG, reference compound]
- GTS activity (in words) (3T3-L1 adipocytes [1]): no activity

Molecule: O=C[C@H](OC(=O)c1cc(O)c(O)c(O)c1)[C@@H](OC(=O)c1cc(O)c(O)c(O)c1)[C@H](OC(=O)c1cc(O)c(O)c(O)c1)[C@@H](COC(=O)c1cc(O)c(O)c(O)c1)OC(=O)c1cc(O)c(O)c(O)c1 [PGG, penta-O-galloyl-D-glucose]
- induction of differentiation when insulin in MDI was substituted by PGG (3T3-L1 preadipocytes [2]; MD plus PGG, FIG. 2B): failed to induce differentiation
- differentiation of preadipocytes treated with MDI plus compound (3T3-L1 preadipocytes [2]; about 10 days, 30 μM PGG, FIG. 8): retain their fibroblast-like morphology and remain fat vesicle-free
- toxic effects (ob/ob mice): No PGG-related toxic effects were observed
- difference of binding affinities of PGG to gelatin and ovalbumin (gelatin, BSA, ovalbumin): more than 100 fold
- difference between relative affinities of three standard proteins for PGG (gelatin, BSA, ovalbumin; gelatin, BSA, ovalbumin): at least 10 fold
- hypoglycemia / blood glucose below basal levels (Normal (healthy) mice): does not further reduce bood glucose levels beyond normal or basal levels
- competition with / displacement of insulin at the insulin binding site on IR ([3]; 8 pM 125I-insulin, 0.1 to 20 μM PGG, overnight 4° C.): does not compete with insulin; also recorded: unable to displace insulin from IR
- insulin binding at higher PGG concentrations ([3]; PGG above 20 μM): Insulin binding increased
- phosphorylation of Akt (Akt in 3T3-L1 adipocytes): phosphorylated
- expression of genes PPAR-γ, c/EBP induced by MDI ([4]; 30 μM PGG+MDI): completely abolished
- β-actin expression [4]: not significantly affected
- GTS activity (in words) (3T3-L1 adipocytes [1]): high activities

Molecule: O=C(OC[C@H]1OC(OC(=O)c2cc(O)c(O)c(O)c2)[C@H](OC(=O)c2cc(O)c(O)c(O)c2)[C@@H](OC(=O)c2cc(O)c(O)c(O)c2)[C@H]1OC(=O)c1cc(O)c(O)c(O)c1)c1cc(O)c(O)c(O)c1 (stereo partly shown) [PGGal, Pentagalloyl galactose]
- GTS activity relative to PGG (3T3-L1 adipocytes [1]; 3T3-L1 cells): 60-70%

Molecule: C=C1[C@@H](C)[C@H]2[C@H](Cc3ccccc3)NC(=O)[C@]23OC(=O)/C=C/[C@H](O)CCC[C@@H](C)C/C=C/[C@H]3[C@@H]1O [cytochalasin B]
- inhibition of the GTS activity mediated by either insulin or PGG (3T3-L1 adipocytes [5]): completely inhibited

Molecule: O=C(O[C@H]1OC[C@@H](OC(=O)c2cc(O)c(O)c(O)c2)[C@H](OC(=O)c2cc(O)c(O)c(O)c2)[C@H]1OC(=O)c1cc(O)c(O)c(O)c1)c1cc(O)c(O)c(O)c1 [α-XylG4, Tetrakis-O-(3,4,5-trihydroxybenzoyl) -α-D-xylopyranose]
- glucose uptake by the cells (3T3-L1 adipocytes [1]; 3T3-L1 adipocytes): increased glucose uptake

Molecule: O=C(OC[C@H]1O[C@@H](OC(=O)c2ccc(O)c(O)c2)[C@H](OC(=O)c2ccc(O)c(O)c2)[C@@H](OC(=O)c2ccc(O)c(O)c2)[C@@H]1OC(=O)c1ccc(O)c(O)c1)c1ccc(O)c(O)c1 [β-Glc(G-3,4-OH2)5, Pentakis-O-(3,4-dihydroxybenzoyl) -β-D-glucopyranose]
- glucose uptake by the cells (3T3-L1 adipocytes [1]; 3T3-L1 adipocytes): increased glucose uptake

Molecule: O=C(OC[C@H]1O[C@@H](OC(=O)c2cc(O)c(O)c(O)c2)[C@H](OC(=O)c2cc(O)c(O)c(O)c2)[C@@H](OC(=O)c2cc(O)c(O)c(O)c2)[C@@H]1OC(=O)c1cc(O)c(O)c(O)c1)c1cc(O)c(O)c(O)c1 [β-PGG, 1,2,3,4,6-penta-O-galloyl-β-D-glucose]
- first round of clonal expansion (3T3-L1 preadipocytes [6]): not inhibited
- second round of clonal expansion (3T3-L1 preadipocytes [6]): completely inhibited
- GTS activity, synthesized versus plant derived β-PGG (3T3-L1 adipocytes [1]; 3T3-L1 adipocytes, FIG. 2A): similar

Molecule: insulin: hormone, positive control [reference compound]
- hypoglycemia / blood glucose below basal levels (Normal (healthy) mice): resulted in a hypoglycemic condition

Molecule: pentagalloyl deoxynojirimycin [PG-DJM]
- GTS activity (in words) (3T3-L1 adipocytes [1]): no detectable GTS activity
